According to ChEMBL document CHEMBL4665793, “Screening and Reverse-Engineering of Estrogen Receptor Ligands as Potent Pan-Filovirus Inhibitors” (J Med Chem, 2020):
pIC50: −log10 of the molar value. Activity calls are given as the source filed them. The rule behind the calls is not given here.

Tests used:
Marburgvirus [1] = assay: microbe, parasite or virus in culture; conditions: Orthomarburgvirus, Musoke, A549, 48 h
in vitro [2] = conditions: human, A549 cells
Zaire ebolavirus = assay: microbe, parasite or virus in culture; conditions: Mayinga, Zaire, 1976, A549, 48 h
in vitro [3] = conditions: human, A549 cells; remark: listed apart in the source
Marburgvirus [4] = format: functional, organism-based; conditions: Orthomarburgvirus, Angola, A549, 24 h
[5] = target: T1, Estrogen receptor (Homo sapiens) (UniProt P03372); assay: Agonist activity at ER-alpha in human MCF-7:WS8 cells transfected with an estrogen response element incubated for 18 hrs by luciferase reporter gene assay; format: cell-based; conditions: MCF7
T1 sequence (whole entry): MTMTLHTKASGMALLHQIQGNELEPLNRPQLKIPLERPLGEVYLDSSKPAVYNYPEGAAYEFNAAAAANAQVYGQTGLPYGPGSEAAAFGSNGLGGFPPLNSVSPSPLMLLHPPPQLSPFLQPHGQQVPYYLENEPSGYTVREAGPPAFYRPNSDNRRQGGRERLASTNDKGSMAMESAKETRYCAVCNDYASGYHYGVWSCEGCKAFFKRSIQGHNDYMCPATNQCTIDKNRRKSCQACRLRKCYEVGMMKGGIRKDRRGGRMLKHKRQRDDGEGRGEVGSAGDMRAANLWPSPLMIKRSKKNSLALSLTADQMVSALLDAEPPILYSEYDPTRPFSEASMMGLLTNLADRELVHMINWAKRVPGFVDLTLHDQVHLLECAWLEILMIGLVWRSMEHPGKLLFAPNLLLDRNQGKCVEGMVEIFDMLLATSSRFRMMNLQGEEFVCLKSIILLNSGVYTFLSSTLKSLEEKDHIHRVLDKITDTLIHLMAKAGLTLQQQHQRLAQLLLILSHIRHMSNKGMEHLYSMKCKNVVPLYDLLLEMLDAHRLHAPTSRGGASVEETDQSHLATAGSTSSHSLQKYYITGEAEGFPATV

Mengla dianlovirus = assay: Antiviral activity against Mengla-virus assessed as inhibition of viral entry; format: functional
A549 = format: cell-based; conditions: human
Ebolavirus [6] = assay: Antiviral activity against Ebolavirus (pRESTV) assessed as inhibition of viral entry; format: functional, organism-based
Ebolavirus [7] = assay: Antiviral activity against Ebolavirus (pBDBV) assessed as inhibition of viral entry; format: functional, organism-based
[8] = tested on: Vesicular stomatitis virus; assay: Antiviral activity against vesicular stomatitis virus assessed as inhibition of viral entry; format: functional, organism-based
Ebolavirus [9] = assay: Antiviral activity against Ebolavirus Tai Forest assessed as inhibition of viral entry; format: functional, organism-based
[10] = target: T1, Estrogen receptor (Homo sapiens); assay: Antagonist activity at ER-alpha in human MCF-7:WS8 cells transfected with an estrogen response element assessed as suppression of estrogen-induced response incubated for 18 hrs by luciferase reporter gene assay; format: cell-based; conditions: MCF7
Influenza A virus = assay: Antiviral activity against Influenza A virus H5N1 assessed as inhibition of viral entry; format: functional, organism-based

SMILES | pIC50 (Marburgvirus [1]) | selectivity ratio (in vitro [2]) | pIC50 (Zaire ebolavirus) | selectivity ratio (in vitro [3]) | pIC50 (Marburgvirus [4]) | Activity [5] | inhibition (Mengla dianlovirus) | CC50 (A549) [nM] | inhibition (Ebolavirus [6]) | inhibition (Ebolavirus [7]) | inhibition [8] | inhibition (Ebolavirus [9]) | inhibition [10] | inhibition (Influenza A virus)
CCNCCc1ccc(CN(CC)c2cc(OC)ccc2[C@@H]2CCc3cc(O)ccc3C2)cc1 [ELACESTRANT] | 5.89 | 8 | 6.62 | 44 | – | – | – | – | – | – | – | – | – | –
COc1ccc2c(Oc3ccc(OCCN4CCCCC4)cc3)c(-c3ccccc3)sc2c1 | 5.50 | 8 | 6.59 | 88 | < 5.20 | – | – | – | – | – | – | – | – | –
Cc1cc(F)cc(C)c1C(=O)c1sc2cc(O)ccc2c1Oc1ccc(OCCN2CC(CF)C2)cc1 | 5.73 | 15 | 5.88 | 21 | – | – | – | – | – | – | – | – | – | –
Cc1c(-c2ccc(O)cc2)nn(-c2ccc(O)cc2)c1-c1ccc(OCCN2CCCCC2)cc1 | 5.92 | 12 | 5.88 | 11 | – | – | – | – | – | – | – | – | – | –
CC/C(=C(/c1ccc(NC(=O)CN2CCN(C)CC2)cc1)c1ccc(OCCN2CCCC2)cc1)c1ccccc1 | 6.38 | 7 | 8.00 | 1400 | 6.44 | – | – | – | – | – | – | – | – | –
COc1ccc2c(Oc3ccc(OCCN4CCCCC4)cc3)c(-c3ccc(Br)cc3)sc2c1 | 5.90 | 37 | 6.20 | 74 | – | – | – | – | – | – | – | – | – | –
CC/C(=C(/c1ccc(NCCN2CCCC2)cc1)c1ccc(OCCN2CCCC2)cc1)c1ccccc1 | < 4.90 | 18 | 6.48 | 79 | < 4.60 | – | – | – | – | – | – | – | – | –
CC/C(=C(/c1ccc(NCCN2CCOCC2)cc1)c1ccc(OCCN2CCOCC2)cc1)c1ccccc1 | 5.66 | < 2 | 6.64 | 111 | 5.54 | – | – | – | – | – | – | – | – | –
Oc1ccc2c(Oc3ccc(OCCN4CCCCC4)cc3)c(-c3ccccc3)sc2c1 | 6.17 | 20 | 6.52 | 45 | < 5.20 | – | – | – | – | – | – | – | – | –
CC/C(=C(/c1ccc(NC(=O)C2CCN(C3CCN(C)CC3)CC2)cc1)c1ccc(OCCN2CCCC2)cc1)c1ccccc1 | 5.69 | 16 | 6.74 | 79 | 5.97 | – | – | – | – | – | – | – | – | –
CC/C(=C(/c1ccc(N)cc1)c1ccc(OCCN2CCCC2)cc1)c1ccccc1 | 5.97 | 13 | 6.89 | 147 | 5.75 | – | – | – | – | – | – | – | – | –
Cc1c(-c2ccc(O)cc2)n(Cc2ccc(OCCN3CCCCCC3)cc2)c2ccc(O)cc12 [BAZEDOXIFENE] | 5.42 | 6 | 5.65 | 10 | – | – | – | – | – | – | – | – | – | –
CC/C(=C(/c1ccc(NC(=O)N2CCN(C)CC2)cc1)c1ccc(OCCN2CCCC2)cc1)c1ccccc1 | 6.12 | 11 | 7.52 | 740 | 5.97 | – | – | – | – | – | – | – | – | –
OCCOc1ccc(/C(=C(/CCCl)c2ccccc2)c2ccccc2)cc1 [OSPEMIFENE] | 4.46 | < 1 | 5.42 | 7 | – | – | – | – | – | – | – | – | – | –
Nc1ccc(-c2sc3cc(O)ccc3c2Oc2ccc(OCCN3CCCCC3)cc2)cc1 | 5.84 | > 69 | 6.89 | > 770 | < 5.20 | inactive | – | – | – | – | – | – | – | –
COc1ccc2c(c1)CCC(c1ccccc1)=C2c1ccc(OCCN2CCCC2)cc1 [NAFOXIDINE] | 5.89 | 6 | 7.00 | 82 | < 5.20 | – | – | – | – | – | – | – | – | –
CC/C(=C(/c1ccc(NC(=O)C2CCN(C)C2)cc1)c1ccc(OCCN2CCCC2)cc1)c1ccccc1 (stereo not drawn) | 6.14 | 30 | 7.70 | 590 | 6.02 | inactive | Active | 11800 | Active | Active | inactive | Active | inactive | inactive
CC/C(=C(/c1ccc(NC(=O)C2CCN(C)CC2)cc1)c1ccc(OCCN2CCCC2)cc1)c1ccccc1 | 6.27 | 12 | 8.00 | 590 | 6.19 | inactive | Active | – | Active | Active | inactive | Active | inactive | inactive
Oc1ccc2c(Oc3ccc(OCCN4CCCCC4)cc3)c(-c3ccc(F)cc3)sc2c1 | 5.69 | 7 | 6.01 | 15 | – | – | – | – | – | – | – | – | – | –
CC/C(=C(/c1ccc(NC(=O)CC2CCN(C)CC2)cc1)c1ccc(OCCN2CCCC2)cc1)c1ccccc1 | 6.21 | 33 | 8.22 | 1400 | 6.06 | – | – | – | – | – | – | – | – | –
CC/C(=C(/c1ccc(NC(=O)CN2CCOCC2)cc1)c1ccc(OCCN2CCCC2)cc1)c1ccccc1 | 5.92 | 14 | 6.46 | 47 | 5.55 | – | – | – | – | – | – | – | – | –
CC/C(=C(/c1ccc(NC(=O)CN2CCOCC2)cc1)c1ccc(OCCN2CCOCC2)cc1)c1ccccc1 | 5.37 | 13 | 6.13 | 40 | 5.49 | – | – | – | – | – | – | – | – | –
CC1=C(c2ccc(O)cc2)[C@H](c2ccc(OCCN3CCCCC3)cc2)Oc2ccccc21 | 6.05 | 19 | 5.82 | 11 | – | – | – | – | – | – | – | – | – | –
CCC(c1ccccc1)C(O)(c1ccc(OCCN(C)C)cc1)c1cccc(O)c1 (stereo not drawn) | 5.36 | 9 | 5.76 | 22 | – | – | – | – | – | – | – | – | – | –
CN(C)CCOc1ccc(/C(=C(/CCCl)c2ccccc2)c2ccccc2)cc1 [TOREMIFENE] | 5.59 | 6 | 7.15 | 229 | 5.41 | – | Active | – | Active | Active | – | Active | – | –
COc1ccc(-c2sc3cc(OC)ccc3c2Oc2ccc(OCCN3CCC(CCNC(=O)CCCCNC(=O)OC(C)(C)C)CC3)cc2)cc1 | 6.22 | 76 | 6.10 | 57 | – | – | – | – | – | – | – | – | – | –
COc1ccc2c(Oc3ccc(OCCN4CCCCC4)cc3)c(-c3ccc(Br)cc3)[s+]([O-])c2c1 (stereo not drawn) | 5.74 | > 55 | 5.67 | > 47 | – | – | – | – | – | – | – | – | – | –
Cc1ccccc1C(=O)c1sc2cc(O)ccc2c1Oc1ccc(OCCN2CC(CF)C2)cc1 | 5.41 | 7 | 5.99 | 27 | < 5.20 | – | – | – | – | – | – | – | – | –
CCC(=C(c1ccc(OCCN2CCCC2)cc1)c1ccc(OCCN2CCCC2)cc1)c1ccccc1 | 6.21 | 13 | 7.70 | 405 | 5.81 | inactive | – | 8100 | – | – | – | – | – | –
